Experimental data: patent publication US8691796B2, “Pharmaceutical composition and method for inhibiting inflammation” (China Medical University, priority 2010, dated 2014)

Key:
Type in all cases: cell-based, human
TNF-α = TNF-α concentration in supernatant of treated FLS (sandwich ELISA); details: FLS from patients with rheumatoid arthritis, treated 24 hours, mixture = 100 μg hyaluronic acid + 5 micro-mole lovastatin in 1 ml, control group 347.00
Description: (§1) Fibroblast-like synoviocytes (FLS) from seven patients with rheumatoid arthritis (RA) were collected and incubated. First, the joint synovia from the patients were cut into small pieces and suspended in a DMEM medium (Dulbecco modified eagle's medium, comprising 1.5 g/L sodium bicarbonate (S6297, Sigma-Aldrich Co. St Louis, Mo., USA), 1% penicillin-streptomycin-neomycin (P4083, Sigma-Aldrich Co.), and 10% fetal bovine serum (04-001-1A, Biological Industries, Grand Island, N.Y., USA)), and were incubated in the environment under 37° C., 5% CO2 for three days.
(§2) The non-adherent cells were washed out with a phosphate buffer solution (PBS), the medium was refreshed, and the retained adherent cells were cultivated for two weeks. […]
(§3) The concentrations of two RA-related factors, TNF-α (the standard sample was purchased from eBioscience, Ltd., 88-7340) and IL-8 (the standard sample was purchased from R&D systems, Inc., USA, DY208), in the supernatants collected from Experiment B were measured using a sandwich binding protein assay kit or sandwich ELISA kits (purchased from eBioscience, Ltd. and R&D systems, Inc.) according to the manufacturer's manual and standard curves to observe the expression level of the factors, thereby determining the inflammation condition of the cells. Each sample was analyzed twice, and an ELISA reader (Sunrise Remote, TECAN) was used to conduct the measurement. […]

IL-8 = IL-8 concentration in supernatant of treated FLS (sandwich ELISA); details: FLS from patients with rheumatoid arthritis, treated 24 hours, mixture = 100 μg hyaluronic acid + 5 micro-mole lovastatin in 1 ml, control group 736.00
Description: The non-adherent cells were washed out with a phosphate buffer solution (PBS), the medium was refreshed, and the retained adherent cells were cultivated for two weeks. The above procedure was repeated three to six times, and the retained cells were FLS, which were used in the following experiments.
The FLS prepared from Experiment A were incubated in a medium containing no serum for 24 hours until the cells grew to a subconfluence state, and the cells were incubated in a DMEM medium containing 10% fetal bovine serum. […]

[1] = system: Fibroblast-like synoviocytes (FLS); assay: Inflammation level of FLS judged from secreted TNF-α and IL-8; details: FLS from patients with RA, treated 24 hours; TNF-α and IL-8 versus control group / HA only
Description: as §1, §2, §3

Row | Compound | TNF-α concentration, Average concentration (TNF-α) [pg/mL] | IL-8 concentration, Average concentration (IL-8) [pg/mL] | inflammation level (effect of inhibiting the inflammation) [1]
1 | hyaluronic acid [HA] | 296.46 | 353.40 | the inflammation level was lowered
2 | CC[C@H](C)C(=O)O[C@H]1C[C@@H](C)C=C2C=C[C@H](C)[C@H](CC[C@@H]3C[C@@H](O)CC(=O)O3)[C@H]21 [HMG-CoA reductase inhibitor, Lovastatin] | 355.07 | 703.94 | –
